Test: Perfume component interaction with cyclodextrin (CD interaction)
Assay type: physicochemical
Conditions: perfume component complexing with cyclodextrin
Source text: The following table illustrates the molecular weight property of some of the preferred perfume versus non-preferred perfume components.

| Compound | CD interaction |
| --- | --- |
| CC(C=O)Cc1ccc(C(C)C)cc1 (centres unmarked) [Cymal] | strong |
| CCOC(=O)c1ccccc1C(=O)OCC [Diethyl Phthalate] | weak |
| CC(=O)OC1CC2CC1C1CC=CC21 (centres unmarked) [Flor Acetate] | strong |
| CCC(=O)OC1CC2CC1C1CC=CC21 (centres unmarked) [Frutene] | strong |
| CC1COCc2cc3c(cc21)C(C)(C)C(C)C3(C)C (centres unmarked) [Galaxolide] | weak |
| CCCCCCOC(=O)c1ccccc1O [Hexyl Salicylate] | weak |
| CCCCCCC(C=O)=Cc1ccccc1 [Hexyl cinnamic Aldehyde] | weak |
| CC(=O)C1(C)CC2=C(CCCC2(C)C)CC1C (centres unmarked) [Iso-E Super] | weak |
| CCCCCCCCCCCCCC(=O)OC(C)C [Iso-propyl Myristate] | weak |
| CC(=O)C(C)=C(C)C(C)C(C)(C)C (centres unmarked) [Koavone] | strong |
| CC(C=O)Cc1ccc(C(C)(C)C)cc1 (centres unmarked) [Lilial, p-t-bucinal] | strong |
| CC(C)(O)CCCC1=CCC(C=O)CC1 (centres unmarked) [Lyral] | weak |
| CCCCCC1C(=O)CCC1CC(=O)OC (centres unmarked) [Methyl Dihydro Jasmonate] | weak |
| O=C(Cc1ccccc1)OCCc1ccccc1 [Phenyl-Ethyl-Phenyl Acetate] | weak |
| CC(=O)OC(C)(C)C1CC=C(C)CC1 (centres unmarked) [Terpinyl Acetate] | significant |
| CCC(C)(O)CCCC(C)C (centres unmarked) [Tetrahydrolinalol] | significant |
| CC(=O)OC1CCC(C(C)(C)C)CC1 (centres unmarked) [Vertenex, para-tert-butylcyclohexyl acetate] | strong |
| CC(=O)/C=C/C1C(C)=CCCC1(C)C (centres unmarked) [a-ionone] | strong |
| a-Me Ionone | strong |

Test: not given
Conditions: cited from earlier work

| Compound | solubility in water |
| --- | --- |
| OCCOc1ccccc1 [2-phenoxyethanol] | about 2.67% |
| OCCc1ccccc1 [2-phenylethanol] | about 2% |
| O=[N+]([O-])C1(Br)COCOC1 [Bronidox L, 5-bromo-5-nitro-1,3-dioxane] | about 0.46% |
| CC1(C)C(=O)N(CO)C(=O)N1CO [DMDM hydantoin, 1,3-bis(hydroxymethyl)-5,5-dimethyl-2,4-imidazolidinedione] | more than 50% |
| ClC=CC[N+]12CN3CN(CN(C3)C1)C2.[Cl-] [Dowicil 200, 1-(3-Chlorallyl)-3,5,7-triaza-1-azoniaadamantane chloride] | freely soluble |
| OCc1ccccc1 [benzyl alcohol] | about 4% |
| [H]/N=C(\N/C(=N/[H])NCCCCCCNC(=N)NC(=N)Nc1ccc(Cl)cc1)Nc1ccc(Cl)cc1 [chlorhexidine diacetate, 1,1′-hexamethylene bis(5-(p-chlorophenyl)biguanide), reference compound] | about 1.8% |
| [H]/N=C(\N/C(=N/[H])NCCCCCCNC(=N)NC(=N)Nc1ccc(Cl)cc1)Nc1ccc(Cl)cc1 [chlorhexidine digluconate, 1,1′-hexamethylene bis(5-(p-chlorophenyl)biguanide), reference compound] | about 70% |
| CC(C)(O)C(Cl)(Cl)Cl [chlorobutanol, 1,1,1-Trichloro-2-methylpropan-2-ol] | about 0.8% |
| [Na+].[O-][n+]1ccccc1[S-] [sodium pyrithione] | about 50% |

Source: US6785989B2, “Methods and apparatus for removal of wrinkles from fabrics” (The Procter & Gamble Company, priority 2000, dated 2004)
